# According to US20120142645A1, “NEUROACTIVE STEROID COMPOSITIONS AND METHODS OF USE FOR LOWERING CHOLESTEROL” (priority 2009, published 2012):
# Where “and” joins values, the source holds several entries; their conditions need not be identical. Identical values can stand only once. Entries after “also recorded” stand apart in the source; their conditions may differ. Marks after values point to notes of the source that are not given here.
# Tests used:
# Type in all cases: in vivo, human
# [1] = test system: patients with schizophrenia or schizoaffective disorder; experiment: Serum analytes and EKG QTc interval at screening and final visit; same trial; conditions: for Serum LDL levels post-treatment compared to baseline: paired t-test p=0.002; for EKG QTc interval / Serum Cholesterol / Serum Glucose / Serum Prolactin / Serum TSH / Serum Triglycerides / Serum LDL / Serum HDL: mean ± SD; for Serum LDL: n = 7; for Serum HDL: n = 8
# Text: (§1) During the screening visit (Visit 1), patients received a physical exam, vital signs, and electrocardiogram (EKG), as well as baseline laboratory measures consisting of serum electrolytes, glucose, creatinine, blood urea nitrogen (chemistry 7 panel), liver function tests, complete blood count (CBC), urinalysis, urine toxicology test, thyroid stimulating hormone (TSH), and prolactin, and serum pregnancy test if female. These tests were also repeated at the completion of the study (Visit 6). In addition, patients received an interim EKG 4 weeks post-randomization, as well as a serum pregnancy test if female (Visit 4). Patients also received a chemistry 7 panel, CBC, and liver function tests at Visits 2, 3, 4, and 5 (i.e., at all study visits). Psychiatric symptoms were assessed at baseline using the Scale for the Assessment of Negative Symptoms (Andreasen, 1983), the Positive and Negative Symptom Scale (PANSS; Kay et al., 1987), the Calgary Depression Rating Scale (CDRS; Addington et al., 1990), the Clinical Global Impressions Improvement (CGI-I) and Severity (CGI-S) scales, the Barnes Akathisia Scale (BAS; Barnes, 1989), the Simpson Angus Scale for Extrapyramidal Symptoms (SAS; Simpson & Angus, 1970), the Quality of Life Scale (QOL; Heinrichs et al., 1984), and the Hillside Side Effects Scale. One research nurse with five years of experience in the conduction of schizophrenia clinical trials completed both psychiatric and cognitive assessments throughout the study, and was trained to one point of divergence on each PANSS item.
# [2] = test system: patients with schizophrenia or schizoaffective disorder; experiment: Side effect profile and tolerability (Hillside AE Form); same trial
# Text: as §1
# [3] = test system: patients with schizophrenia or schizoaffective disorder; experiment: Psychiatric rating scales (PANSS, CGI, Calgary, SAS, BAS, AIMS, Quality of Life); same trial; set-up: CGI-S score / Calgary Depression Scale, difference PG vs placebo / Heinrich Carpenter subscore Interpersonal and social work, difference PG vs placebo / Heinrich Carpenter subscore Occupational role function, difference PG vs placebo / Heinrich Carpenter subscore Other residual symptoms, difference PG vs placebo: scale not given here; conditions: for Heinrich Carpenter Quality of Life Scale, difference PG vs placebo: not significant (p=0.32); for PANSS General subscore / PANSS Negative symptoms subscore / PANSS Positive symptoms subscore / PANSS total score: mean; for CGI-I score: Week 8 (final), 2=much improved, 3=minimally improved, n = 9
# Experimental: Study Design and Subjects. Disclosed herein is a placebo-controlled, double-blind, parallel group, randomized trial of adjunctive pregnenolone for the treatment of cognitive and negative symptoms in patients with schizophrenia or schizoaffective disorder. […] Patients received a total of 6 study visits, which took place every two weeks. […] The trial was conducted at a single site, the Durham Veterans Affairs Medical Center in Durham, N.C. The protocol was approved by the local institutional review board and conducted under FDA Investigational New Drug (IND) #71,768. The ClinicalTrials.gov number for this study is NCT00560937.
# as §1
# [4] = change from baseline pre-randomization, n = 9
# [5] = change from baseline pre-randomization, n = 9, mild in all subjects
# [6] = change from baseline pre-randomization, n = 9, mild in all subjects, listed as pregnenolone
# [7] = Difference in changes from Week 0-8
# [8] = Difference in changes from Week 0-8, points
# [9] = Difference in changes from Week 0-8, points, listed as pregnenolone
smiles,measurement,setting,value
"CC(=O)[C@H]1CC[C@H]2[C@@H]3CC=C4C[C@@H](O)CC[C@]4(C)[C@H]3CC[C@]12C [PG, pregnenolone]",EKG QTc interval following treatment,[1]; 8 weeks of pregnenolone,no change
same,"Laboratory parameters including glucose, triglycerides, HDL, TSH, and prolactin, post-treatment compared to baseline",[1]; 8 weeks of pregnenolone,no significant changes
same,Serum LDL levels post-treatment compared to baseline,"[1]; 8 weeks of pregnenolone, listed as Pregnenolone",significantly decreased
same,Serum LDL levels post-treatment compared to baseline,"[1]; 8 weeks of pregnenolone, listed as pregnenolone",significantly reduced; also recorded: significantly decreased
same,Cholesterol levels following treatment compared to baseline,"[1]; 8 weeks of pregnenolone, paired t-test p=0.008",significantly decreased
same,EKG QTc interval,[1]; Screening,414.8 ± 19.2 ms
same,Serum Cholesterol,[1]; Screening,185.8 ± 43.3 mg/100 ml
same,Serum Glucose,[1]; Screening,117.9 ± 36.2 mg/100 ml
same,Serum Prolactin,[1]; Screening,7.69 ± 5.91 ng/mL
same,Serum TSH,[1]; Screening,1.45 ± 0.64 μIU/ml
same,Serum Triglycerides,[1]; Screening,194.3 ± 87.8 mg/100 ml
same,Serum LDL,[1]; Screening,119.1 ± 26.0 mg/100 ml
same,Serum HDL,[1]; Screening,39.3 ± 16.5 mg/100 ml
same,EKG QTc interval,[1]; Week 8,406.8 ± 20.9 ms
same,Serum Glucose,[1]; Week 8,119.0 ± 33.5 mg/100 ml
same,Serum Prolactin,[1]; Week 8,7.85 ± 6.47 ng/mL
same,Serum TSH,[1]; Week 8,1.26 ± 0.72 μIU/ml
same,Serum Triglycerides,[1]; Week 8,237.6 ± 119.5 mg/100 ml
same,Serum LDL,"[1]; Week 8, p 0.002 vs screening",90.9 ± 29.4 mg/100 ml
same,Serum HDL,[1]; Week 8,37.0 ± 17.4 mg/100 ml
same,Serum Cholesterol,"[1]; Week 8, p 0.008 vs screening",166.6 ± 36.2 mg/100 ml
same,"Glucose levels, serum electrolyte panels, thyroid stimulating hormone, prolactin levels, and liver function tests",[1]; during the 8-week trial,unchanged
same,Serious adverse event related to study medication,[2]; 8-week trial,No patients receiving pregnenolone experienced a serious adverse event
same,Side effect: Akathisia,[2]; [4],0 N (%)
same,Side effect: All Other Side Effects,[2]; [4],0 N (%)
same,Side effect: Blurred Vision,[2]; [4],0 N (%)
same,Side effect: Diarrhea,[2]; [4],0 N (%)
same,Side effect: Drowsiness,[2]; [4],0 N (%)
same,Side effect: Excitation/Agitation,[2]; [4],0 N (%)
same,Side effect: Headache,[2]; [4],0 N (%)
same,Side effect: Impaired Sexual Performance,[2]; [4],0 N (%)
same,Side effect: Insomnia,[2]; [4],0 N (%)
same,Side effect: Joint Pain/Stiffness,[2]; [4],0 N (%)
same,Side effect: Malaise,[2]; [4],0 N (%)
same,Side effect: Nasal Congestion,[2]; [4],0 N (%)
same,Side effect: Peripheral Edema,[2]; [4],0 N (%)
same,Side effect: Rigidity,[2]; [4],0 N (%)
same,Side effect: Sweating,[2]; [4],0 N (%)
same,Side effect: Tremor,[2]; [4],0 N (%)
same,Side effect: Hypertension,"[2]; change from baseline pre-randomization, n = 9, mild (<145/90)",1 (11%)^b N (%)
same,Side effect: Cold Extremities,[2]; [5],1 (11%)^a N (%)
same,Side effect: Decreased Interest in Sex,[2]; [5],1 (11%)^a N (%)
same,"Side effect: Disorientation (to date, address, mayor, or MD name)",[2]; [5],2 (22%)^a N (%)
same,Side effect: Dry mouth,[2]; [5],1 (11%)^a N (%)
same,Side effect: Muscle Pain/Stiffness,[2]; [5],1 (11%)^a N (%)
same,Side effect: Restlessness,[2]; [5],2 (22%)^a N (%)
same,Side effect: Cold Extremities,[2]; [6],one report of mild cold extremities; also recorded: one instance of mild cold extremities
same,Side effect: Muscle Pain/Stiffness,[2]; [6],one report of mild muscle pain/stiffness; also recorded: one instance of mild muscle pain/stiffness
same,Side effect: Restlessness,[2]; [6],two reports of mild restlessness; also recorded: two instances of mild restlessness
same,Tolerability,"[2]; doses up to 500 mg/day, 8 weeks",very well-tolerated
same,"Weight gain, blood pressure, or pulse rate changes",[2]; during the course of the study,"did not demonstrate significant weight gain, blood pressure, or pulse rate changes"
same,"CGI-S, change",[3]; Changes from Week 0-8,−0.1
same,"Calgary Depression Scale, change","[3]; Changes from Week 0-8, n = 7",−1.6
same,"AIMS, change","[3]; Changes from Week 0-8, n = 8",−1.0
same,"Barnes Akathisia Scale, change","[3]; Changes from Week 0-8, n = 8",−0.4
same,"Heinrich Carpenter Quality of Life Scale, change","[3]; Changes from Week 0-8, n = 8",7.9
same,"Heinrich Carpenter subscore Interpersonal and social work, change","[3]; Changes from Week 0-8, n = 8",5.4
same,"Heinrich Carpenter subscore Occupational role function, change","[3]; Changes from Week 0-8, n = 8",0.9
same,"Heinrich Carpenter subscore Other residual symptoms, change","[3]; Changes from Week 0-8, n = 8",1.6
same,"PANSS General, change","[3]; Changes from Week 0-8, n = 8",−4.5
same,"PANSS Negative symptoms, change","[3]; Changes from Week 0-8, n = 8",−2.8
same,"PANSS Positive symptoms, change","[3]; Changes from Week 0-8, n = 8",−2.6
same,"PANSS total, change","[3]; Changes from Week 0-8, n = 8",−9.9
same,"Simpson-Angus Scale, change","[3]; Changes from Week 0-8, n = 8",−0.1
same,"AIMS, difference PG vs placebo",[3]; [7],−0.6 ± 0.7
same,"Calgary Depression Scale, difference PG vs placebo",[3]; [7],0.4 ± 1.6
same,"Heinrich Carpenter subscore Interpersonal and social work, difference PG vs placebo",[3]; [7],3.6 ± 3.2
same,"Heinrich Carpenter subscore Occupational role function, difference PG vs placebo",[3]; [7],0.8 ± 0.6
same,"Heinrich Carpenter subscore Other residual symptoms, difference PG vs placebo",[3]; [7],0.9 ± 2.2
same,"PANSS General, difference PG vs placebo",[3]; [7],−1.3 ± 2.1
same,"PANSS Positive symptoms, difference PG vs placebo",[3]; [7],−1.6 ± 0.8
same,"Simpson-Angus Scale, difference PG vs placebo",[3]; [7],−0.2 ± 0.4
same,"PANSS Negative symptoms, difference PG vs placebo",[3]; [8],−1.5 ± 1.4
same,"PANSS Negative symptoms, difference PG vs placebo",[3]; [9],1.53
same,"PANSS total, difference PG vs placebo","[3]; Difference in changes from Week 0-8, points, not significant (p=0.24)",−4.4 ± 3.6
same,"Heinrich Carpenter Quality of Life Scale, difference PG vs placebo",[3]; [8],5.3 ± 5.1
same,"Heinrich Carpenter Quality of Life Scale, difference PG vs placebo",[3]; [9],5.27±5.07 and 5.27
same,AIMS score,[3]; Week 0 (baseline),1.6
same,Barnes Akathisia Scale score,[3]; Week 0 (baseline),0.4
same,CGI-S score,[3]; Week 0 (baseline),4.0
same,Calgary Depression Scale score,[3]; Week 0 (baseline),2.4
same,Heinrich Carpenter Quality of Life Scale score,[3]; Week 0 (baseline),47.5
same,Heinrich Carpenter subscore Interpersonal and social work,[3]; Week 0 (baseline),17.9
same,Heinrich Carpenter subscore Occupational role function,[3]; Week 0 (baseline),1.9
same,Heinrich Carpenter subscore Other residual symptoms,[3]; Week 0 (baseline),27.8
same,Simpson-Angus Scale score,[3]; Week 0 (baseline),1.0
same,CGI-S score,"[3]; Week 0 (baseline), listed as pregnenolone",4.00±0.50
same,PANSS General subscore,[3]; Week 0 (baseline),35.5
same,PANSS Negative symptoms subscore,[3]; Week 0 (baseline),23.4
same,PANSS Positive symptoms subscore,[3]; Week 0 (baseline),13.6
same,PANSS total score,[3]; Week 0 (baseline),72.5
same,AIMS score,[3]; Week 4,0.9
same,Barnes Akathisia Scale score,[3]; Week 4,0.4
same,Simpson-Angus Scale score,[3]; Week 4,1.3
same,PANSS General subscore,[3]; Week 4,34.3
same,PANSS Negative symptoms subscore,[3]; Week 4,23.2
same,PANSS Positive symptoms subscore,[3]; Week 4,12.8
same,PANSS total score,[3]; Week 4,67.9
same,AIMS score,[3]; Week 8,0.6
same,Barnes Akathisia Scale score,[3]; Week 8,0.0
same,Calgary Depression Scale score,[3]; Week 8,0.9
same,Heinrich Carpenter Quality of Life Scale score,[3]; Week 8,55.4
same,Heinrich Carpenter subscore Interpersonal and social work,[3]; Week 8,23.3
same,Heinrich Carpenter subscore Occupational role function,[3]; Week 8,2.8
same,Heinrich Carpenter subscore Other residual symptoms,[3]; Week 8,29.4
same,Simpson-Angus Scale score,[3]; Week 8,0.9
same,CGI-I score,[3],2.11
same,CGI-I score,[3]; listed as pregnenolone,2.11±0.33 and 2.11
same,CGI-S score,[3]; Week 8 (post-treatment),3.9
same,CGI-S score,"[3]; Week 8 (post-treatment), listed as pregnenolone",3.89±0.33
same,PANSS General subscore,[3]; Week 8,31.2
same,PANSS Negative symptoms subscore,[3]; Week 8,20.6
same,PANSS Positive symptoms subscore,[3]; Week 8,11.9
same,PANSS total score,[3]; Week 8,63.6
